From the NIST ThermoML archive (doi:10.1016/j.jct.2016.10.034)

Assay: xn = mol fraction of the nth substance listed
Conditions: 100 kPa, Liquid; for viscosity: Falling or rolling sphere viscometry; for mass density: Vibrating tube method

CC[N+]1(C)CCCC1.O=C([O-])CO [1-ethyl-1-methylpyrrolidinium glycolate] + O
Conditions	mass density [kg/m3]	viscosity [mPa·s]
298.15 K, x1 = 0.0541	1057.7	–
298.15 K, x1 = 0.1293	1100.6	11.8
298.15 K, x1 = 0.2024	1118.3	25.2
298.15 K, x1 = 0.2905	1127.2	46.2
298.15 K, x1 = 0.3464	1130	61.1
298.15 K, x1 = 0.4258	1132.3	84
298.15 K, x1 = 0.5357	1133.9	119
298.15 K, x1 = 0.6086	1134.3	145
298.15 K, x1 = 0.729	1134.7	195
298.15 K, x1 = 0.825	1134.5	241
298.15 K, x1 = 0.8839	1134.3	271
303.15 K, x1 = 0.0541	1055.1	–
303.15 K, x1 = 0.1293	1097.2	9.63
303.15 K, x1 = 0.2024	1114.7	19.9
303.15 K, x1 = 0.2905	1123.6	37.2
303.15 K, x1 = 0.3464	1126.5	48.2
303.15 K, x1 = 0.4258	1128.8	65
303.15 K, x1 = 0.5357	1130.4	90.6
303.15 K, x1 = 0.6086	1130.9	110
303.15 K, x1 = 0.729	1131.3	146
303.15 K, x1 = 0.825	1131.1	179
303.15 K, x1 = 0.8839	1130.9	200
308.15 K, x1 = 0.0541	1052.3	–
308.15 K, x1 = 0.1293	1093.7	8
308.15 K, x1 = 0.2024	1111.2	16.5
308.15 K, x1 = 0.2905	1120.1	30
308.15 K, x1 = 0.3464	1123	38.3
308.15 K, x1 = 0.4258	1125.4	51.4
308.15 K, x1 = 0.5357	1127	70.8
308.15 K, x1 = 0.6086	1127.5	85.4
308.15 K, x1 = 0.729	1127.9	112
308.15 K, x1 = 0.825	1127.7	137
308.15 K, x1 = 0.8839	1127.6	152
313.15 K, x1 = 0.0541	1049.5	–
313.15 K, x1 = 0.1293	1090.3	6.75
313.15 K, x1 = 0.2024	1107.6	13.5
313.15 K, x1 = 0.2905	1116.6	23.5
313.15 K, x1 = 0.3464	1119.5	30.5
313.15 K, x1 = 0.4258	1121.9	41.3
313.15 K, x1 = 0.5357	1123.6	56.4
313.15 K, x1 = 0.6086	1124.1	67.6
313.15 K, x1 = 0.729	1124.6	87.7
313.15 K, x1 = 0.825	1124.4	106
313.15 K, x1 = 0.8839	1124.3	119
318.15 K, x1 = 0.0541	1046.6	–
318.15 K, x1 = 0.1293	1086.8	5.69
318.15 K, x1 = 0.2024	1104	11.6
318.15 K, x1 = 0.2905	1113.1	20
318.15 K, x1 = 0.3464	1116	25.4
318.15 K, x1 = 0.4258	1118.5	33.8
318.15 K, x1 = 0.5357	1120.3	45.7
318.15 K, x1 = 0.6086	1120.8	54.2
318.15 K, x1 = 0.729	1121.3	70
318.15 K, x1 = 0.825	1121.1	83.6
318.15 K, x1 = 0.8839	1121	92.8
323.15 K, x1 = 0.0541	1043.7	–
323.15 K, x1 = 0.1293	1083.3	4.85
323.15 K, x1 = 0.2024	1100.4	9.82
323.15 K, x1 = 0.2905	1109.6	16.4
323.15 K, x1 = 0.3464	1112.6	20.9
323.15 K, x1 = 0.4258	1115.2	27.7
323.15 K, x1 = 0.5357	1116.9	37.5
323.15 K, x1 = 0.6086	1117.5	44.5
323.15 K, x1 = 0.729	1118	56.6
323.15 K, x1 = 0.825	1117.9	67
323.15 K, x1 = 0.8839	1117.7	74.6
328.15 K, x1 = 0.0541	1040.6	–
328.15 K, x1 = 0.1293	1079.8	4.34
328.15 K, x1 = 0.2024	1096.8	8.55
328.15 K, x1 = 0.2905	1106.1	13.9
328.15 K, x1 = 0.3464	1109.2	17.8
328.15 K, x1 = 0.4258	1111.8	23.3
328.15 K, x1 = 0.5357	1113.6	31.4
328.15 K, x1 = 0.6086	1114.2	37.2
328.15 K, x1 = 0.729	1114.8	46.8
328.15 K, x1 = 0.825	1114.6	55.7
328.15 K, x1 = 0.8839	1114.5	61.9
333.15 K, x1 = 0.0541	1037.5	–
333.15 K, x1 = 0.1293	1076.2	4.12
333.15 K, x1 = 0.2024	1093.3	7.54
333.15 K, x1 = 0.2905	1102.6	12.5
333.15 K, x1 = 0.3464	1105.7	15.5
333.15 K, x1 = 0.4258	1108.5	20
333.15 K, x1 = 0.5357	1110.4	26.5
333.15 K, x1 = 0.6086	1111	31.1
333.15 K, x1 = 0.729	1111.5	38.8
333.15 K, x1 = 0.825	1111.4	45.5
333.15 K, x1 = 0.8839	1111.3	49.9
338.15 K, x1 = 0.0541	1034.3	–
338.15 K, x1 = 0.1293	1072.7	3.87
338.15 K, x1 = 0.2024	1089.7	6.81
338.15 K, x1 = 0.2905	1099.2	10.6
338.15 K, x1 = 0.3464	1102.4	13.2
338.15 K, x1 = 0.4258	1105.1	16.8
338.15 K, x1 = 0.5357	1107.1	22.4
338.15 K, x1 = 0.6086	1107.7	26.1
338.15 K, x1 = 0.729	1108.3	32.6
338.15 K, x1 = 0.825	1108.3	38.1
338.15 K, x1 = 0.8839	1108.2	41.6
343.15 K, x1 = 0.0541	1031.1	–
343.15 K, x1 = 0.1293	1069.1	3.58
343.15 K, x1 = 0.2024	1086.1	5.96
343.15 K, x1 = 0.2905	1095.7	9.03
343.15 K, x1 = 0.3464	1099	11.2
343.15 K, x1 = 0.4258	1101.8	14.5
343.15 K, x1 = 0.5357	1103.9	19.2
343.15 K, x1 = 0.6086	1104.6	22.4
343.15 K, x1 = 0.729	1105.2	27.9
343.15 K, x1 = 0.825	1105.1	32.4
343.15 K, x1 = 0.8839	1105.1	35.3
348.15 K, x1 = 0.0541	1027.6	–
348.15 K, x1 = 0.1293	1065.5	3.55
348.15 K, x1 = 0.2024	1082.6	5.64
348.15 K, x1 = 0.2905	1092.9	7.83
348.15 K, x1 = 0.3464	1095.6	9.71
348.15 K, x1 = 0.4258	1098.6	12.5
348.15 K, x1 = 0.5357	1100.7	16.6
348.15 K, x1 = 0.6086	1101.4	19.3
348.15 K, x1 = 0.729	1102.1	24
348.15 K, x1 = 0.825	1102	27.7
348.15 K, x1 = 0.8839	1102	30.1
